From patent publication US4568689A, “Pharmaceutical preparation for the treatment of hypertensive disease and myocardial infarction” (priority 1983, dated 1986)
“Also recorded” adds a separate entry of the source.

How the values were obtained:
[1] = test system: arterial pressure of spontaneously hypertensive rats; assay: effect of the oral form on arterial pressure, spontaneously hypertensive rats; assay type: in vivo; details: 10 mg/kg
[2] = background; cited from earlier work
[3] = test system: arterial pressure of rats with spontaneous hypertension; assay: hypotensive effect, intraperitoneal, spontaneously hypertensive rats; assay type: in vivo
Description: The study of the hypotensive effect was carried out in experiments on spontaneously hypertensive male rats of the Akamoto-Aoki line aged 20-25 weeks. The prior art preparation-nifedipine was used for the purpose of comparison. The measurement of the arterial pressure was effected on the tail vein of the rats by the indirect method. The animals were divided into groups (10 in each) and trained for two weeks with the view to ensure their adaptation to the unit for the measurement of the arterial pressure. The level of the arterial pressure prior to administration of the test preparations was measured three times: two days, one day and directly prior to administration of the test preparations. The preparation was administered in the form of a 2.5% aqueous solution, nifedipine--in the form of a 2.5% suspension in Twin-80 intraperitoneally. […]

[4] = background; cited from earlier work; remark: listed apart in the source
[5] = test system: neoepinephrine model of infarction (focal necrosis) of myocardium in rats; assay: survival of rats with the neoepinephrine model of infarction; assay type: in vivo, rats of the Wistar line; details: 25 mg/kg subcutaneously, 7 days; for Percentage of survival: after 19 days; for Number of survived animals after 19 days: groups initially 12 animals
Description: The study of the effect produced by the preparation according to the present invention on survival of animals with a neoepinephrine model of infarction was effected in comparison with the prior art preparations--obzidan and finoptin.
The formation of a neoepinephrine model of infarction (focal necrosis) of myocardium in rats was effected by way of an every-day subcutaneous administration of a 0.1% solution of neoepinephrine in the dose of 3 mg/kg for 7 days to rats of the Wistar line with a mass of 160-200 g. The test preparations were subcutaneously administered to the rats in the form of a 1.25% aqueous solution in the dose of 25 mg/kg 0.5 hour after injection of neoepinephrine also for 7 days.

[6] = test system: experimental necrosis of myocardium caused by introduction of adrenaline; assay: histological analysis of experimental necrosis of myocardium caused by adrenaline; assay type: in vivo, rats of the Wistar line; details: for changes in cardiomyocytes / changes in interstitial tissue / changes in vessels: 25 mg/kg
Description: A comparative study of the effects produced by the preparation according to the present invention and finoptin on an experimental necrosis of myocardium caused by introduction of adrenaline.
The experiments were carried out on rats of the Wistar line of gregarious keeping, both sexes, with a mass of 170 to 225 g. Each preparation was studied on a separate group of animals: (group of adrenaline-control, group of finoptin, group of the preparation according to the present invention). 72 rats were used in the experiments altogether. Injuries of myocardium were caused by way of a single-time subcutaneous administration of a 0.1% solution of adrenaline hydrochloride in the dose of 3 mg per kg of the rat's bodyweight. […] The preparation of this invention was administered subcutaneously, finoptin-per os. On the first day of the experiment the preparations were administered 30 minutes after injection of adrenaline hydrochloride. The experiment lasted for 19 days. Slaughters were effected on the 4th, 8th, 12th and 19th day of the experiment. The animals were decapitated. The heart was fixed in a 10% solution of neutral formalin and sealed in paraffin. Serial sections with the thickness of 5-6μ were coloured by Ehrlich hematoxylin-eosin. The state of vessels of myocardium, cardiomyocytes and interstitial tissue were evaluated by histological analysis.

[7] = 1 mg/kg intraperitoneally, 30 minutes
[8] = 1 mg/kg intraperitoneally, 1 hour
[9] = 1 mg/kg intraperitoneally, 2 hours
[10] = 1 mg/kg intraperitoneally, 4 hours
[11] = 1 mg/kg intraperitoneally, 24 hours
[12] = 4th day, grade/number of animals (6)
[13] = 8th day, grade/number of animals (6)
[14] = 12th day, grade/number of animals (6)
[15] = 19th day, grade/number of animals (5)

SMILES: COC(=O)C1=C(C)NC(C)=C(C(=O)OC)C1c1ccccc1[N+](=O)[O-] [Nifedipine, reference compound]
- Variation of arterial pressure, diastolic ([1]; 30 minutes): -14 % of the initial
- Variation of arterial pressure, systolic ([1]; 30 minutes): -10 % of the initial
- Variation of arterial pressure, diastolic ([1]; 1 hour): -18 % of the initial
- Variation of arterial pressure, systolic ([1]; 1 hour): -14 % of the initial
- Variation of arterial pressure, diastolic ([1]; 2 hours): -16 % of the initial
- Variation of arterial pressure, systolic ([1]; 2 hours): -10 % of the initial
- Variation of arterial pressure, diastolic ([1]; 4 hours): -20 % of the initial
- Variation of arterial pressure, systolic ([1]; 4 hours): -18 % of the initial
- Variation of arterial pressure, diastolic ([1]; 24 hours): 0 % of the initial
- Variation of arterial pressure, systolic ([1]; 24 hours): 0 % of the initial
- duration of effect [2]: ≤ 8 h
- Variation of arterial pressure, diastolic [3, 7]: -8 % of the initial
- Variation of arterial pressure, systolic [3, 7]: -4 % of the initial
- lowering of diastolic pressure [3, 7]: 7.6%
- lowering of systolic pressure [3, 7]: 4.3%
- Variation of arterial pressure, diastolic [3, 8]: -14 % of the initial
- Variation of arterial pressure, systolic [3, 8]: -11 % of the initial
- Variation of arterial pressure, diastolic [3, 9]: -21 % of the initial
- Variation of arterial pressure, systolic [3, 9]: -8 % of the initial
- Variation of arterial pressure, diastolic [3, 10]: -31 % of the initial
- Variation of arterial pressure, systolic [3, 10]: -11 % of the initial
- Variation of arterial pressure, diastolic [3, 11]: 0 % of the initial
- Variation of arterial pressure, systolic [3, 11]: 0 % of the initial
- effect upon expiration of 8 hours ([3]; 8 hours): substantially discontinued

SMILES: CC(C)NCC(O)COc1cccc2ccccc12 (stereo not drawn) [inderal]
- inotropic effect [4]: negative inotropic effect

SMILES: COc1ccc(CCN(C)CCCC(C#N)(c2ccc(OC)c(OC)c2)C(C)C)cc1OC (stereo not drawn) [Finoptin, reference compound]
- Percentage of survival [5]: 50%
- Number of survived animals after 19 days [5]: 6
- changes in cardiomyocytes ([6]; 4th day): Necrosis and eosinophilia, as well as contracture alterations of muscular cells are observed in a half of the studied animals
- changes in interstitial tissue ([6]; 4th day): edema is decreased, in a half of the animals a diffusive round-cell infiltration is observed, the formation of granulomae is similar to that of the animals of the control group
- changes in vessels ([6]; 4th day): injuries of the vascular system are less clearly pronounced as compared to adrenaline; non-uniform distribution of endothelium and infiltration of adventita of arteries with lymphoid cells are insignificant
- necrobiotic regions in the wall [6, 12]: 0/6
- necrosis of more than 5 cells [6, 12]: 0/6
- wall necrosis (vessels) [6, 12]: 0/6
- changes in cardiomyocytes ([6]; 8th day): granular-lumpy decomposition, eosinophilia and contructure type pathology are more pronounced than in the group of animals administered with the preparation according to the present invention, but less pronounced as compared to the control group (adrenaline)
- changes in interstitial tissue ([6]; 8th day): a more intensive growth of the scarring tissue is observed as compared to the group of animals administered with the preparation according to the present invention and an insignificant decrease as compared to the control group (adrenaline)
- diffusive round-cell infiltration [6, 13]: 0/6
- edema (interstitial tissue) [6, 13]: 0/6
- necrobiotic regions in the wall [6, 13]: 0/6
- necrosis of more than 5 cells [6, 13]: 0/6
- nuclei (pyknosis) [6, 13]: 0/6
- plethora of the vessels [6, 13]: 0/6
- wall necrosis (vessels) [6, 13]: 0/6
- changes in cardiomyocytes ([6]; 12th day): Eosinophilia is retained and the contructure type changes are more clearly pronounced than in the group administered with the preparation according to the present invention
- changes in interstitial tissue ([6]; 12th day): an intensive formation of the scarring tissue occurs more noticeably than in the group of animals administered with the preparation according to the present invention
- changes in vessels ([6]; 12th day): certain changes are observed on the part of endothelial cells (swelling)
- Nuclei (pykhnosis) [6, 14]: 0/6
- diffusive round-cell infiltration [6, 14]: 0/6
- edema (interstitial tissue) [6, 14]: 0/6
- infiltration of the adventitia with lymphoid cells [6, 14]: 0/5
- necrobiotic regions with changes in the vessel wall [6, 14]: 0/6
- necrosis of more than 5 cells [6, 14]: 0/6
- plethora of the vessels [6, 14]: 0/6
- wall necrosis (vessels) [6, 14]: 0/6
- changes in cardiomyocytes ([6]; 19th day): By the 19th day these changes are getting less noticeable; also recorded: In half of the animals a moderately pronounced granular-lumpy decomposition is retained along with eosinophilia, cell necroses and contructure type changes
- changes in vessels ([6]; 19th day): no changes are detected on the part of the coronary vessels
- infiltration of the adventitia with lymphoid cells [6, 15]: 0/5
- necrobiotic regions with changes in the vessel wall [6, 15]: 0/5
- necrosis of more than 5 cells [6, 15]: 0/5
- nuclei (pyknosis) [6, 15]: 0/5
- plethora of the vessels [6, 15]: 0/5

SMILES: C=CCOc1ccccc1OCC(O)CNC(C)C (stereo not drawn) [oxyprenolol]
- inotropic effect [4]: negative inotropic effect

SMILES: CC(C)NCC(O)COc1cccc2ccccc12 (stereo not drawn) [Obzidan]
- Percentage of survival [5]: 50%
- Number of survived animals after 19 days [5]: 6
